Laboratory results as given in patent publication US20230225324A1, “Synergistic Pesticidal Composition Against Sucking Pests Complex” (priority 2020, published 2023).

Key:
Jassids = assay: Synergistic insecticidal effect of the combination, mortality of Jassids (Table 3); type: in vivo
Description: (§1) Evaluation of the synergistic insecticidal effect of the composition comprising Diafenthiuron, Pyriproxyfen and an insecticide Dinotefuran can be established by using any synergistic insecticidal composition prepared by the process described in the above examples. For these evaluations one or more of the synergistic insecticidal compositions prepared in the examples are used here.
(§2) Synergism can be calculated by using the Colby's method i.e. the expected (or predicted) response of the combination is calculated by taking the product of the observed response for each individual component of the combination when applied alone divided by 100 and subtracting this value from the sum of observed response for each component when applied alone. Synergism of the combination is then determined by comparing the observed response of the combination to the expected (or predicted) response as calculated from the observed response of each individual component alone. If the observed response of the combination is greater than the expected (or predicted) response then the combination is said to be synergistic and falls within the definition of synergistic effect. (Colby, S. R., Weeds, 1967(15), p. 20-22).

White fly = assay: Synergistic insecticidal effect of the combination, mortality of White fly (Table 2); type: in vivo
Description: as §1, §2

CC(COc1ccc(Oc2ccccc2)cc1)Oc1ccccn1 (racemic) [Pyriproxyfen, 4-phenoxyphenyl (RS)-2-(2-pyridyloxy)propyl ether]
Observed Mortality % (Jassids; Pyriproxyfen 72 ppm): 21.70%
Observed Mortality % (Jassids; Pyriproxyfen 96 ppm): 29.20%
Observed Mortality % (Jassids; Pyriproxyfen 120 ppm): 35.50%
Observed Mortality % (Jassids; Pyriproxyfen 144 ppm): 37.90%
Observed Mortality % (White fly; Pyriproxyfen 72 ppm): 30.70%
Observed Mortality % (White fly; Pyriproxyfen 96 ppm): 38.10%
Observed Mortality % (White fly; Pyriproxyfen 120 ppm): 43.70%
Observed Mortality % (White fly; Pyriproxyfen 144 ppm): 46.60%

CC(C)c1cc(Oc2ccccc2)cc(C(C)C)c1NC(=S)NC(C)(C)C [Diafenthiuron, 1-tert-butyl-3-(2,6-di-isopropyl-4-phenoxyphenyl)thiourea]
Observed Mortality % (Jassids; Diafenthiuron 120 ppm): 28.90%
Observed Mortality % (Jassids; Diafenthiuron 240 ppm): 42.00%
Observed Mortality % (Jassids; Diafenthiuron 360 ppm): 48.50%
Observed Mortality % (Jassids; Diafenthiuron 480 ppm): 57.40%
Observed Mortality % (White fly; Diafenthiuron 120 ppm): 38.40%
Observed Mortality % (White fly; Diafenthiuron 240 ppm): 48.50%
Observed Mortality % (White fly; Diafenthiuron 360 ppm): 57.30%
Observed Mortality % (White fly; Diafenthiuron 480 ppm): 61.80%

CN/C(=N/CC1CCOC1)N[N+](=O)[O-] (stereo not drawn) [Dinotefuran, 2-methyl-1-nitro-3-[(tetrahydro-3-furanyl)methyl]guanidine]
Observed Mortality % (Jassids; Dinotefuran 45 ppm): 65.60%
Observed Mortality % (Jassids; Dinotefuran 60 ppm): 73.40%
Observed Mortality % (Jassids; Dinotefuran 75 ppm): 79.00%
Observed Mortality % (Jassids; Dinotefuran 90 ppm): 83.80%
Observed Mortality % (White fly; Dinotefuran 45 ppm): 35.10%
Observed Mortality % (White fly; Dinotefuran 60 ppm): 45.50%
Observed Mortality % (White fly; Dinotefuran 75 ppm): 52.00%
Observed Mortality % (White fly; Dinotefuran 90 ppm): 61.40%
